Reference: patent US12109218B2, “Compositions of grapiprant and methods for using the same” (ARATANA THERAPEUTICS, INC., priority 2014, dated 2024)
Like-named read-outs stand apart in the source and are kept apart here.

Key:
[1] = Dose linearity and effect of feeding, PK in cats (Example 10); type: in vivo, cat; settings: for Cmax / AUC(0-inf) / Tmax / half-life / AUC(0-t): serum, po
Method: Grapiprant was blended in a mixture of excipients as shown in Table 14 and administered orally by capsule to male and female cats.
The day of dosing was defined as Day 0. Following dosing, the animals were evaluated for clinical signs. Blood samples were collected prior to dosing and at 0.25, 0.5, 1, 2, 4, 8, 12, and 24-hours postdose. The blood samples were processed to serum and analyzed for grapiprant concentration. There were no test article-related clinical signs. The mean grapiprant pharmacokinetic results were as follow in Table 16.

[2] = Crossover PK of tablet vs methylcellulose suspension in beagle dogs (Example 15); type: in vivo, beagle dog; settings: for Cmax / AUC(0-t) / Tmax: both sexes, dog, serum, po; for Cmax / AUC(0-t): beagle, both sexes combined; for AUC(0-t): read-out: average AUClast
Method: The objective of this study was to determine and compare the pharmacokinetic parameters of grapiprant in beagle dogs after single oral administration of a flavored tablet formulation and a methylcellulose suspension formulation at nominal doses of 6 mg/kg and 50 mg/kg. For this study, sixteen beagle dogs, […], were divided into two groups based on the nominal doses of grapiprant, either 6 mg/kg in Groups 3AB or 50 mg/kg in Groups 4A/B. Each group was given the appropriate oral dose in a tablet or in a methylcellulose formulation, using the crossover design as shown below at Table 19, on study Days 0 and 15. Blood samples were collected and serum was prepared, frozen, and analyzed for concentration of grapiprant.
The vehicle was 0.5% methylcellulose (400 centipoise) in water. About half a volume of distilled water was heated to about 40-50° C. Methylcellulose was weighed to give a final concentration of 0.5% (w/v), and dissolved in the heated distilled water with stirring. The flask with the methylcellulose solution was cooled immediately. The remaining distilled water was added into the flask to adjust volume. The final solution was stirred for least 30 minutes.
To prepare 1.2-mg/mL and 10-mg/mL suspensions grapiprant in the vehicle, an appropriate amount of grapiprant was added to a calibrated beaker containing 0.5% aqueous methylcellulose, and mixed using a vortex. The suspension was homogenized using a Polytron™ mixer with attached antifoam bit. A stir bar was added to the beaker, and the suspension was stirred for about 5 minutes. The stir bar was removed temporarily to adjust the volume, and the suspension was stirred for another 5 minutes before it was transferred to a labeled amber dosing container or glass beaker wrapped with foil.
The dosing suspension was prepared fresh on each day of dosing. A vortex depth of between 75% and 100% of the depth of the container containing the 500-mg suspension was achieved on both dosing days. […] Dose formulation samples were transported to the animal room before collection and were collected (while the formulations were being stirred) just before dosing the first animal of each group, and just before dosing the last animal of each group. These steps guard against the 500-mg suspension settling during transport from the formulation laboratory to the animal room.

dog EP4 receptors = dog EP4 receptors (Canis lupus familiaris, UniProt A0A8I3MI92); settings: dog EP4 receptor; read-out: Ki, inhibition of [3H]PGE binding; cited from earlier work
[3] = system: thermal hyperalgesia induced by intraplantar injection of PGE2; settings: oral administration; cited from earlier work
[4] = system: other human prostanoid receptor subtypes; settings: cited from earlier work
cat serum proteins = test: Binding to cat serum proteins by equilibrium dialysis (Example 11); settings: equilibrium dialysis (RED device)
Method: Grapiprant concentrations of 200 and 1000 ng/mL in cat serum were subjected to equilibrium dialysis using a Rapid Equilibrium Dialysis (RED) device.

[5] = 60 mg, beagle dogs, Day 0, 60-mg suspension
[6] = 60 mg, beagle dogs, Day 0, 60-mg tablet
[7] = 60 mg, beagle dogs, Day 15, 60-mg suspension
[8] = 60 mg, beagle dogs, Day 15, 60-mg tablet
[9] = 500 mg, beagle dogs, Day 0, 500-mg suspension
[10] = 500 mg, beagle dogs, Day 0, 500-mg tablet
[11] = 500 mg, beagle dogs, Day 15, 500-mg suspension
[12] = 500 mg, beagle dogs, Day 15, 500-mg tablet

Chain of dog EP4 receptors (A0A8I3MI92 1-492): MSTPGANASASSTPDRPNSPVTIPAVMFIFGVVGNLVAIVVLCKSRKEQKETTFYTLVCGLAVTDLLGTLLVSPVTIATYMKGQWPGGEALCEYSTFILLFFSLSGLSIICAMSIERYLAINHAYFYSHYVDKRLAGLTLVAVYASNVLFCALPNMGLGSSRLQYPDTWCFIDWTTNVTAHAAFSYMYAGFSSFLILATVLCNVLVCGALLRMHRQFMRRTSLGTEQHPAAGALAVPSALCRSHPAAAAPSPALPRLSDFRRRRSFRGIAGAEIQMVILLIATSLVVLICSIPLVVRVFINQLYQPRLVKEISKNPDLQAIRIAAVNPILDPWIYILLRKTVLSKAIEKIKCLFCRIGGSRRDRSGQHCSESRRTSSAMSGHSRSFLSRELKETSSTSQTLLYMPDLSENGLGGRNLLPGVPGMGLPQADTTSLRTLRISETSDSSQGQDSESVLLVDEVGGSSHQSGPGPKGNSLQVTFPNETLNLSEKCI

## CCc1nc2c(C)nc(C)cc2n1-c1ccc(CCNC(=O)NS(=O)(=O)c2ccc(C)cc2)cc1 [grapiprant, N-{2-[4-(2-ethyl-4,6-dimethyl-1H-imidazo[4,5-c]pyridin-1-yl)phenyl]ethyl}-N′-[(4-methylphenyl)sulfonyl]urea]
[1]; both sexes, 2 mg/kg, Group 1 fed cats, single oral 2 mg/kg capsule, males and females, read-out: Mean Cmax
  Cmax: 327 to 407 ng/mL
[1]; both sexes, 2 mg/kg, Group 1 fed cats, single oral 2 mg/kg capsule, males and females, read-out: mean AUC0-∞
  AUC(0-inf): 1070 to 1220 ng·h/mL
[1]; both sexes, 2 mg/kg, Group 1 fed cats, single oral 2 mg/kg capsule, males and females, read-out: mean Tmax
  Tmax: 1.33 to 1.65 h
[1]; both sexes, 2 mg/kg, Group 1 fed cats, single oral 2 mg/kg capsule, males and females, read-out: mean terminal half-life
  half-life: 2.4 to 3.12 h
[1]; both sexes, 2 mg/kg, Group 2 fasted cats, single oral 2 mg/kg capsule, males and females, read-out: Mean Cmax
  Cmax: 1100 to 1630 ng/mL
[1]; both sexes, 2 mg/kg, Group 2 fasted cats, single oral 2 mg/kg capsule, males and females, read-out: mean AUC0-∞
  AUC(0-inf): 1970 to 2850 ng·h/mL
[1]; both sexes, 2 mg/kg, Group 2 fasted cats, single oral 2 mg/kg capsule, males and females, read-out: mean Tmax
  Tmax: 1.01 h
[1]; both sexes, 2 mg/kg, Group 2 fasted cats, single oral 2 mg/kg capsule, males and females, read-out: mean terminal half-life
  half-life: 1.47 to 2.16 h
[1]; both sexes, 6 mg/kg, Group 3 fasted cats, single oral 6 mg/kg capsule, males and females, read-out: Mean Cmax
  Cmax: 2970 to 3110 ng/mL
[1]; both sexes, 6 mg/kg, Group 3 fasted cats, single oral 6 mg/kg capsule, males and females, read-out: mean AUC0-∞
  AUC(0-inf): 3750 to 6350 ng·h/mL
[1]; both sexes, 6 mg/kg, Group 3 fasted cats, single oral 6 mg/kg capsule, males and females, read-out: mean Tmax
  Tmax: 0.99 to 1.17 h
[1]; both sexes, 6 mg/kg, Group 3 fasted cats, single oral 6 mg/kg capsule, males and females, read-out: mean terminal half-life
  half-life: 2.79 to 4.98 h
[1]; both sexes, 10 mg/kg, Group 4 fasted cats, single oral 10 mg/kg capsule, males and females, read-out: Mean Cmax
  Cmax: 4280 to 7130 ng/mL
[1]; both sexes, 10 mg/kg, Group 4 fasted cats, single oral 10 mg/kg capsule, males and females, read-out: mean AUC0-∞
  AUC(0-inf): 7580 to 10900 ng·h/mL
[1]; both sexes, 10 mg/kg, Group 4 fasted cats, single oral 10 mg/kg capsule, males and females, read-out: mean Tmax
  Tmax: 0.728 to 1.33 h
[1]; both sexes, 10 mg/kg, Group 4 fasted cats, single oral 10 mg/kg capsule, males and females, read-out: mean terminal half-life
  half-life: 4.03 to 4.19 h
[1]; cats, one-time oral capsule, 2 (fed and fasted), 6, and 10 mg/kg
  tolerability: well-tolerated with no test article-related clinical signs
[1]; fasted cats, Groups 2-4, 2-10 mg/kg
  dose linearity of exposure (AUC0-∞): roughly dose-linear but less than dose-proportional
[1]; female, 2 mg/kg, cats, Group 1, 2 mg/kg capsule, Fed, Female, mean
  AUC(0-t): 990 ng·h/mL
[1]; female, 2 mg/kg, cats, Group 1, 2 mg/kg capsule, Fed, Female, mean, read-out: AUC0-∞
  AUC(0-inf): 1070 ng·h/mL
[1]; female, 2 mg/kg, cats, Group 1, 2 mg/kg capsule, Fed, Female, mean, read-out: Cmax
  Cmax: 327 ng/mL
[1]; female, 2 mg/kg, cats, Group 1, 2 mg/kg capsule, Fed, Female, mean, read-out: Tmax
  Tmax: 1.33 h
[1]; female, 2 mg/kg, cats, Group 1, 2 mg/kg capsule, Fed, Female, mean, read-out: t1/2 (converted)
  half-life: 2.4 h
[1]; female, 2 mg/kg, cats, Group 2, 2 mg/kg capsule, Fasted, Female, mean
  AUC(0-t): 2780 ng·h/mL
[1]; female, 2 mg/kg, cats, Group 2, 2 mg/kg capsule, Fasted, Female, mean, read-out: AUC0-∞
  AUC(0-inf): 2850 ng·h/mL
[1]; female, 2 mg/kg, cats, Group 2, 2 mg/kg capsule, Fasted, Female, mean, read-out: Cmax
  Cmax: 1630 ng/mL
[1]; female, 2 mg/kg, cats, Group 2, 2 mg/kg capsule, Fasted, Female, mean, read-out: Tmax
  Tmax: 1.01 h
[1]; female, 2 mg/kg, cats, Group 2, 2 mg/kg capsule, Fasted, Female, mean, read-out: t1/2 (converted)
  half-life: 1.47 h
[1]; female, 6 mg/kg, cats, Group 3, 6 mg/kg capsule, Fasted, Female, mean
  AUC(0-t): 6130 ng·h/mL
[1]; female, 6 mg/kg, cats, Group 3, 6 mg/kg capsule, Fasted, Female, mean, read-out: AUC0-∞
  AUC(0-inf): 6350 ng·h/mL
[1]; female, 6 mg/kg, cats, Group 3, 6 mg/kg capsule, Fasted, Female, mean, read-out: Cmax
  Cmax: 3110 ng/mL
[1]; female, 6 mg/kg, cats, Group 3, 6 mg/kg capsule, Fasted, Female, mean, read-out: Tmax
  Tmax: 1.17 h
[1]; female, 6 mg/kg, cats, Group 3, 6 mg/kg capsule, Fasted, Female, mean, read-out: t1/2 (converted)
  half-life: 4.98 h
[1]; female, 10 mg/kg, cats, Group 4, 10 mg/kg capsule, Fasted, Female, mean
  AUC(0-t): 10700 ng·h/mL
[1]; female, 10 mg/kg, cats, Group 4, 10 mg/kg capsule, Fasted, Female, mean, read-out: AUC0-∞
  AUC(0-inf): 10900 ng·h/mL
[1]; female, 10 mg/kg, cats, Group 4, 10 mg/kg capsule, Fasted, Female, mean, read-out: Cmax
  Cmax: 7130 ng/mL
[1]; female, 10 mg/kg, cats, Group 4, 10 mg/kg capsule, Fasted, Female, mean, read-out: Tmax
  Tmax: 0.73 h
[1]; female, 10 mg/kg, cats, Group 4, 10 mg/kg capsule, Fasted, Female, mean, read-out: t1/2 (converted)
  half-life: 4.19 h
[1]; male, 2 mg/kg, cats, Group 1, 2 mg/kg capsule, Fed, Male, mean
  AUC(0-t): 1030 ng·h/mL
[1]; male, 2 mg/kg, cats, Group 1, 2 mg/kg capsule, Fed, Male, mean, read-out: AUC0-∞
  AUC(0-inf): 1220 ng·h/mL
[1]; male, 2 mg/kg, cats, Group 1, 2 mg/kg capsule, Fed, Male, mean, read-out: Cmax
  Cmax: 407 ng/mL
[1]; male, 2 mg/kg, cats, Group 1, 2 mg/kg capsule, Fed, Male, mean, read-out: Tmax
  Tmax: 1.65 h
[1]; male, 2 mg/kg, cats, Group 1, 2 mg/kg capsule, Fed, Male, mean, read-out: t1/2 (converted)
  half-life: 3.12 h
[1]; male, 2 mg/kg, cats, Group 2, 2 mg/kg capsule, Fasted, Male, mean
  AUC(0-t): 2290 ng·h/mL
[1]; male, 2 mg/kg, cats, Group 2, 2 mg/kg capsule, Fasted, Male, mean, read-out: AUC0-∞
  AUC(0-inf): 1970 ng·h/mL
[1]; male, 2 mg/kg, cats, Group 2, 2 mg/kg capsule, Fasted, Male, mean, read-out: Cmax
  Cmax: 1100 ng/mL
[1]; male, 2 mg/kg, cats, Group 2, 2 mg/kg capsule, Fasted, Male, mean, read-out: Tmax
  Tmax: 1.01 h
[1]; male, 2 mg/kg, cats, Group 2, 2 mg/kg capsule, Fasted, Male, mean, read-out: t1/2 (converted)
  half-life: 2.16 h
[1]; male, 6 mg/kg, cats, Group 3, 6 mg/kg capsule, Fasted, Male, mean
  AUC(0-t): 3650 ng·h/mL
[1]; male, 6 mg/kg, cats, Group 3, 6 mg/kg capsule, Fasted, Male, mean, read-out: AUC0-∞
  AUC(0-inf): 3750 ng·h/mL
[1]; male, 6 mg/kg, cats, Group 3, 6 mg/kg capsule, Fasted, Male, mean, read-out: Cmax
  Cmax: 2970 ng/mL
[1]; male, 6 mg/kg, cats, Group 3, 6 mg/kg capsule, Fasted, Male, mean, read-out: Tmax
  Tmax: 0.99 h
[1]; male, 6 mg/kg, cats, Group 3, 6 mg/kg capsule, Fasted, Male, mean, read-out: t1/2 (converted)
  half-life: 2.79 h
[1]; male, 10 mg/kg, cats, Group 4, 10 mg/kg capsule, Fasted, Male, mean
  AUC(0-t): 7430 ng·h/mL
[1]; male, 10 mg/kg, cats, Group 4, 10 mg/kg capsule, Fasted, Male, mean, read-out: AUC0-∞
  AUC(0-inf): 7580 ng·h/mL
[1]; male, 10 mg/kg, cats, Group 4, 10 mg/kg capsule, Fasted, Male, mean, read-out: Cmax
  Cmax: 4280 ng/mL
[1]; male, 10 mg/kg, cats, Group 4, 10 mg/kg capsule, Fasted, Male, mean, read-out: Tmax
  Tmax: 1.33 h
[1]; male, 10 mg/kg, cats, Group 4, 10 mg/kg capsule, Fasted, Male, mean, read-out: t1/2 (converted)
  half-life: 4.03 h
[2]; beagle dogs, single oral 60 mg or 500 mg
  fecal abnormalities: Slight increases in the incidence of fecal abnormalities
[2]; both dose levels, both trials
  relative bioavailability ratio (tablet/suspension): greater than 100
[2]; [5]
  Cmax: 4050 ng/mL
  AUC(0-t): 14500 ng·h/mL
[2]; [6]
  Cmax: 5330 ng/mL
  AUC(0-t): 19600 ng·h/mL
[2]; [7]
  Cmax: 3810 ng/mL
  AUC(0-t): 12500 ng·h/mL
[2]; [8]
  Cmax: 6110 ng/mL
  AUC(0-t): 17400 ng·h/mL
[2]; [9]
  Cmax: 76800 ng/mL
  AUC(0-t): 293000 ng·h/mL
[2]; [10]
  Cmax: 96100 ng/mL
  AUC(0-t): 455000 ng·h/mL
[2]; [11]
  Cmax: 74200 ng/mL
  AUC(0-t): 209000 ng·h/mL
[2]; [12]
  Cmax: 101000 ng/mL
  AUC(0-t): 430000 ng·h/mL
[2]; beagle dogs, Day 0, 60-mg methylcellulose suspension
  Tmax: 1 h
[2]; beagle dogs, Day 15, 500-mg suspension
  Tmax: 1 h
Dog EP4 receptors
  Ki: 24.1 ± 2.7 nM
[3]
  ED50, reduction of thermal hyperalgesia: 12.8 mg/kg
[4]
  selectivity for EP4 over other human prostanoid receptor subtypes: highly selective for the EP4 receptor over other human prostanoid receptor subtypes
Cat serum proteins; 200 ng/mL
  percent bound: 95%
Cat serum proteins; 1000 ng/mL
  percent bound: 92%
